The structures appear in SMILES notation.

The assay concerns the target T1, T. brucei TS (Tsf-TbDHFR-TS) (Trypanosoma brucei brucei, UniProt Q27783).
T1 construct: The open reading frame of DHFR-TS was amplified by PCR from T. brucei gDNA using specific oligonucleotides; made in house; host or cells: thyA- E. coli derived from BL21 Star (DE3); unpurified clarified lysate
As to the kind of experiment: Kinetic analysis of TS activity (substrates). The format is biochemical. The settings on record: clarified E. coli lysate, radiometric assay; read-out: CH2THF Km^app. The method, then: The initial characterisation of TS was also carried out using a spectrophotometric assay. Owing to the pronounced instability of the recombinant protein, clarified ThyA^- E. coli lysates were used for characterisation, where the concentration of TS was calculated based on DHFR activity. […] . Enzymatic reactions were initiated by the addition of CH2THF (200 μM, Shircks Laboratories) and initial rates of CH2THF oxidation to DHF monitored by the increase in absorbance at 340 nm (ε = 6,200 M^-1 cm^-1). This method is not suitable for determination of the Km^app for CH2THF and a radiometric method was used instead. This method measures the release of tritiated water from 5-[^3H]-dUMP (American Radiochemicals, 14.3 Ci mmol^-1). Assays (40 μl final volume) contained 200 nM TS and varying amounts of CH2THF (37.5 μM– 4.8 mM) in DHFR-assay buffer. Reactions were initiated by adding 200 μM [^3H]-dUMP (5.55 × 10^5 dpm nmol^-1) and stopped after 10 min by the addition of 20 μl trichloroacetic acid. Residual 5-[^3H]-dUMP was removed by the addition of 200 μl of 10% (w/v) activated charcoal (Sigma). Aliquots (100 μl) of the supernatants were added to 2 ml of scintillation fluid (Pico-Fluor 40™, Packard Bioscience) and radioactivity determined using a Beckmann LS 6500 Scintillation Counter. […] Protein concentrations were determined using the BioRad protein assay based on the method of Bradford. […]

T1 sequence (Q27783 whole entry): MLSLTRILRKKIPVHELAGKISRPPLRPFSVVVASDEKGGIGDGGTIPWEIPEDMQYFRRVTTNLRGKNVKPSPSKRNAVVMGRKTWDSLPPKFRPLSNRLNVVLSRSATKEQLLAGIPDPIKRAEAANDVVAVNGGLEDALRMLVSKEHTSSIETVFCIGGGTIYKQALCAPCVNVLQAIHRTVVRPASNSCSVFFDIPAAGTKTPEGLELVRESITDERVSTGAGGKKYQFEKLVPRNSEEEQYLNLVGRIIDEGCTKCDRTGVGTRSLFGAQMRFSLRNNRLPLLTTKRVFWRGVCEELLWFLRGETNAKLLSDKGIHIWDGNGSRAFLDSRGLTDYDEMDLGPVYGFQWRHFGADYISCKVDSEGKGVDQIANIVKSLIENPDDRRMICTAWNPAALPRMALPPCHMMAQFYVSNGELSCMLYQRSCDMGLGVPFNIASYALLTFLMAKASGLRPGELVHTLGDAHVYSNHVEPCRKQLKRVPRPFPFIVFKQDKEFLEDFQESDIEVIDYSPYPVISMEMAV
T1 sequence (P0A6P1 whole entry partner): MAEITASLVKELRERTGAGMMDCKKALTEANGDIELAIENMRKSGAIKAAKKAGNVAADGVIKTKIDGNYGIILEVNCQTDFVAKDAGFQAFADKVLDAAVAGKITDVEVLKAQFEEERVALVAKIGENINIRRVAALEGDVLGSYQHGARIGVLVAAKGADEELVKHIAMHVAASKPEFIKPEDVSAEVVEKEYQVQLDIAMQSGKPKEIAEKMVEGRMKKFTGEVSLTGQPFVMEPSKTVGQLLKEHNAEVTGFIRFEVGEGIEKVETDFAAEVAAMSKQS

As for `Nc1nc2c(c(=O)[nH]1)N1CN(c3ccc(C(=O)N[C@@H](CCC(=O)O)C(=O)O)cc3)CC1CN2` (stereo partly shown) [CH2THF, N^5, N^10-methylenetetrahydrofolate], the Km (in general, the substrate concentration at which the rate is half of its maximum) came out at 470 ± 50 µM.

Source of the values: PMC4866688, “Trypanosoma brucei DHFR-TS Revisited: Characterisation of a Bifunctional and Highly Unstable Recombinant Dihydrofolate Reductase-Thymidylate Synthase” (PLoS Neglected Tropical Diseases, 2016).
